Results on one compound are retold here after PMC11768932, “Pharmacokinetic Evaluation of Neutral Sphinghomyelinase2 (nSMase2) Inhibitor Prodrugs in Mice and Dogs” (Pharmaceutics, 2024).

On the set-up of data set [1]: method as in PMID 35930706. The settings on record: CES1−/− mouse plasma, 10 μM, 37 °C, previously published; cited from earlier work.
Data set [2] in a line: In vitro stability in dog plasma. The settings on record: 37 °C. It is filed as in vitro ADME. As for the experimental part:
(§1) The in vitro metabolic stability analysis of DPTIP prodrugs was performed in the plasma of mice, dogs, and humans, as previously described. Briefly, for plasma stability, 1 mL of plasma was spiked with 10 μM of the respective prodrug followed by incubation in an orbital shaker at 37 °C for 1 h (in triplicate). The samples from each incubation at predetermined time points (0 and 60 min) was quenched with 3× volume of acetonitrile containing the internal standard (IS; losartan: 0.5 μM). The samples were vortex-mixed for 30 s and centrifuged at 10,000× g for 10 min at 4 °C. Compound disappearance over time was monitored via a Dionex ultra-high-performance LC system coupled with a Q Exactive Focus orbitrap mass spectrometer (Thermo Fisher Scientific Inc., Waltham, MA, USA). Quantification of the prodrugs was performed in full scan mode (from m/z 75 to 1125) by comparing t = 0 min samples with t = 60 min samples.

A short description of data set [3]: In vitro stability in human plasma. The class given is in vitro ADME. Particulars: 37 °C. As for the experimental part: as §1

As for `CCCCCN(C)C(=O)Oc1c(OC)cc(-c2nc(-c3ccccc3)c(-c3cccs3)[nH]2)cc1OC` [Prodrug 5], the “In Vitro Stability in Plasma (% Remaining at 60 min) Mean ± SEM (n = 3), Mice” value in data set [1] is listed as 59.9 ± 5.8 %. Moreover, the “In Vitro Stability in Plasma (% Remaining at 60 min) Mean ± SEM (n = 3), Dogs” value in data set [2] (10 μM) was found to be 49.5 ± 1.0%. Further, the amount remaining (in general, the share of the starting amount still present when the sample was taken) at 1 h, 10 μM was in the range of 40 to 77% in data set [2] (dog, 60 min, read-out: In Vitro Stability in Plasma (% Remaining at 60 min) Mean ± SEM (n = 3), Dogs) and 40 to 77% in data set [3] (human, 60 min, read-out: In Vitro Stability in Plasma (% Remaining at 60 min) Mean ± SEM (n = 3), Humans). The “In Vitro Stability in Plasma (% Remaining at 60 min) Mean ± SEM (n = 3), Humans” value in data set [3] (10 μM) was 42.3 ± 2.1%.
